Among the data in PubChem BioAssay AID179 (DTP/NCI, 2004) are EC50, IC50 and outcome values, retold here.

The structures appear in SMILES notation. Where “and” joins values, the source holds several entries; their conditions need not be identical. Identical values can stand only once. Calls of active or inactive are those of the source.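 Rule for the calls: active = compounds giving half or more protection of infected cells from virus-caused growth loss, again on retest; inactive = the rest.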 Where a SMILES comes first, the peptide text is derived from it. The star is where a group is joined. ONb = O=[N+]([O-])c1ccc(CO*)cc1; Cbz = O=C(OCc1ccccc1)* Where only a bound is given, the exact number is not on record here.

The test system of the assay is CEM cells HIV-1 protection, formazan growth assay. In words: NCI AIDS Antiviral Assay. Conditions: for IC50: measured here: growth of uninfected CEM cells. In short, it runs like this: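 Category rules: moderately active means at least 50% protection on retest, and confirmed active means 100% protection reproducibly. The underlying data came from a formazan growth assay in HIV-1-infected CEM cells.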

As to `O=C(O)c1ccc2c(c1)C(=O)c1ccccc1C2=O`, the EC50 (in general, the concentration needed to bring the measured effect to its halfway point) was over 200 µM and the IC50 – broadly, the concentration needed to halve the response being measured – came to 97.7 µM.

`COC(=O)c1ccccc1/C=C1/Cc2cccc(C)c2C1=O`: the EC50 is over 200 µM and the IC50 is over 200 µM.

On to `CCCCCOC(=O)C(=O)Nc1n[nH]nc1C(N)=O`, for which the EC50 was over 200 µM and the IC50 is over 200 µM.

With `Cc1cc2c(cc1Cl)SC(NNC1=NCCN1)=NS2(=O)=O`, the EC50 is over 200 µM and the IC50 stood at 115 µM.

As for `CC(=O)Oc1ccc(-c2cc3ccccc3oc2=O)cc1`, the EC50 is over 200 µM and the half-maximal inhibitory concentration (IC50) is 28.2 µM.

For the molecule `C/C(=N\NC(=S)N1CCCCC1)c1cccc(C)n1`, the EC50 was over 0.2 µM and the IC50 stood at 0.00617 µM.

With `COc1cc2cnc3c4cc(OC)c(OC)cc4ccc3c2cc1OC`, the result was inactive.

For the molecule `C=CCC12CC(O)C(O)CC1(OC)OC(c1cc(OC)c(OC)c(OC)c1)C2C` (stereo not given), the EC50 was over 200 µM and the IC50 came to 129 µM.

On to `CC12CCC(=O)N1[C@@H](c1ccccc1)[C@@H](c1ccccc1)O2` (stereo not given in full), for which the EC50 is over 234 µM and the 50% inhibitory concentration (IC50) is over 234 µM.

On to `Oc1c(CN2CCOCC2)ccc2cccnc12`, for which the EC50 was over 200 µM and the IC50 stood at 3.72 µM.

With `ON/N=C/c1cc2c(cc1Br)OCO2`, the EC50 was over 263 µM and the IC50 was 186 µM.

Consider `Oc1c2cccc1Cc1cccc3c1OCCOCCOCCOCCOc1c(cccc1Cc1cccc(c1O)C3)C2`, for which the EC50 was over 200 µM and the IC50 amounted to 50.1 µM.

Take `c1ccc(N2N=C3N(c4ccccc4)C2N3c2ccccc2)cc1`: the EC50 is over 200 µM and the IC50 came to 30.2 µM.

`COCN1COCN(C)C1=O`: the EC50 was over 1550 µM and the IC50 was over 1550 µM.

As for `COc1ccc(C(CC(=O)c2cccs2)C(=O)c2ccc3c(c2)OCO3)cc1` (stereo not given), the EC50 is over 200 µM and the IC50 worked out at 102 µM.

As for `CC1=Nc2nnnn2N=C(C)C1`, the EC50 is over 234 µM and the IC50 was over 234 µM.

With `NC1=NNC2(C(=O)N1)c1ccccc1-c1ccccc12`, the EC50 was over 200 µM and the 50% inhibitory concentration (IC50) was determined as 46.8 µM.

Take `O=C1C(=C/C=C2/SC(c3ccccc3)(c3ccccc3)c3ccccc32)C(=O)c2ccccc21`: the EC50 is over 200 µM and the IC50 was over 200 µM.

For `CCOC(OC1=C(C#N)CCCC1)C(CC)[Se]c1ccccc1[N+](=O)[O-]` (stereo not given), the EC50 is over 23.4 µM and the IC50 is over 23.4 µM.

On to `Cc1cc(=O)n2c(nc3cc([N+](=O)[O-])ccc32)s1`, for which the EC50 is over 200 µM and the half-maximal inhibitory concentration (IC50) was 186 µM.

For the molecule `COc1ccc(C2CC3(c4ccccc4)ON=C(c4ccccc4)N3c3ccccc3S2)cc1` (stereo not given), the EC50 is over 200 µM and the 50% inhibitory concentration (IC50) is over 200 µM.

In the case of `CCCCCC1=CC(=O)C=C(OC)C12C(=O)Oc1cc(O)c(C(=O)O)c(CCCCC)c12` (stereo not given), the EC50 was over 562 µM and the IC50 came to 77.6 µM.

As for `C[n+]1c(-c2ccc(/C=N/Nc3ccnc(N/N=C/c4ccc(-c5cn6ccsc6[n+]5C)cc4)n3)cc2)cn2ccsc21`, the EC50 is 11.5 µM and the IC50 turned out to be 41.7 µM.

As for `C=CCSCCOCn1cc(C)c(=O)[nH]c1=O`, the EC50 is over 200 µM and the IC50 was over 200 µM.

As to `CC(=O)N1C/C(=C\c2ccccc2)C(=O)/C(=C/c2ccccc2)C1`, the outcome was inactive.

As for `COC1=C(OC)C(=O)C2=C(OCCCO2)C1=O`, the EC50 is over 389 µM and the IC50 stood at 2 µM.

With `CC(C)C1=CC23CCC4C(C)(C(=O)O)CCCC4(C)C2CC1C1C(=O)N(c2ccccc2N2C(=O)C4C5CC6C7(C)CCCC(C)(C(=O)O)C7CCC6(C=C5C(C)C)C4C2=O)C(=O)C13` (stereo not given), the EC50 is over 141 µM and the IC50 amounted to 8.13 µM.

Regarding `CCn1c2ccccc2c2c(-c3ccccc3)cc3c(c21)C(=O)N(c1ccccc1)C3=O`, the EC50 was over 6.61 µM and the IC50 was over 6.61 µM.

As to `CCC12C=CCN3CCC4(c5cc(C(c6ccccn6)c6cc7ccccc7n6C)c(OC)cc5N(C)C4C(O)(C(=O)OC)C1OC(C)=O)C32` (stereo not given), the EC50 is over 10.7 µM and the IC50 was over 10.7 µM.

Regarding `CC(=O)OCc1cc(=O)n(C)c2c3c4c(cc12)c(C)cc(=O)n4CO3`, the EC50 is over 7.94 µM and the IC50 was found to be 1.26 µM.

Consider `Cc1ccc(/C=C2\CCS(=O)(=O)c3ccccc3C2=O)cc1`, for which the EC50 is over 200 µM and the IC50 came to 9.77 µM.

As to `COC(=O)c1cc(C(=CCC(=O)N[C@@H]2CC[C@@]3(C)[C@@H](CC[C@@H]4[C@@H]3CC[C@]3(C)[C@@H]([C@H](C)CCCC(C)C)CC[C@@H]43)C2)c2cc(Cl)c(OC)c(C(=O)OC)c2)cc(Cl)c1OC`, the EC50 is over 200 µM and the IC50 was over 200 µM.

`COC(=O)C1=C2c3ccccc3NC(=O)N2NC1C(=O)OC` (stereo not given): the EC50 was over 550 µM and the IC50 worked out at 501 µM.

For the molecule `CN(C)CC1CCCCCCCCCCC1=O` (stereo not given), the EC50 was over 200 µM; the concentration for half-maximal inhibition (IC50) was 117 µM and 93.3 µM.

`CCc1ccccc1NC(=O)C(=O)C1C(=O)N(c2ccccc2)N=C1N` (stereo not given): the EC50 was over 708 µM and the IC50 amounted to 224 µM.

As for `COc1cc2c(cc1OC)C(CC(=O)NN=C(C)C)NCC2` (stereo not given), the EC50 is over 813 µM and the concentration for half-maximal inhibition (IC50) was over 813 µM.

In the case of `Cn1c2ccccc2n2c3ncccc3c(=O)c(C#N)c12`, the EC50 is over 50.1 µM and the IC50 was determined as 1.26 µM.

`N#Cc1c(N=C/C=C/c2ccccc2)c(C(=O)Nc2ccccc2)n2c1CCC2`: the EC50 was over 200 µM and the IC50 is over 200 µM.

On to `O=C1CC2(CCNCC2)C(=O)N1N1CCOCC1`, for which the EC50 was over 200 µM and the IC50 is over 200 µM.

With `CC(=O)c1c(O)n(-c2ccc(C)cc2)c(=O)c2c(N)n[nH]c12`, the concentration giving a half-maximal response (EC50) was 100 µM and the IC50 is 117 µM.

For the molecule `COc1ccc(CN(Cc2ccc(OC)cc2)C(=O)CC2(O)C=CCC2)cc1` (stereo not given), the EC50 was over 200 µM and the IC50 is 75.9 µM.

Regarding `Cc1cc(C)nc(NS(=O)(=O)c2ccc(NN=c3c4ccccc4n(C)c4ccccc34)cc2)n1`, the EC50 was over 200 µM and the IC50 came out at 11.2 µM.

For the molecule `O=[N+]([O-])c1ccc2[nH]ncc2c1Cl`, the EC50 is over 200 µM and the IC50 was found to be 9.77 µM.

On to `NC1=Nc2ccccc2Sc2nccn21`, for which the EC50 is over 200 µM and the IC50 is 28.8 µM.

As for `COC(=O)N/N=C(/CCN1CCCC1)CC(c1ccccc1)c1c(O)c2ccccc2oc1=O` (stereo not given), the EC50 was over 89.1 µM and the IC50 came out at 83.2 µM.

Turning to `O=C(O)C1CC2=C(CN1)Cc1ccccc12` (stereo not given), the EC50 is over 9.33 µM and the 50% inhibitory concentration (IC50) was over 9.33 µM.

As for `O=c1nc(Oc2ccccc2)nc2cnccn12`, the EC50 is over 372 µM and the IC50 turned out to be 145 µM.

`CC=C(c1cc(Br)c(OC)c(C(=O)OC)c1)c1cc(Br)c(OC)c(C(=O)OC)c1`: the EC50 was over 200 µM and the IC50 amounted to 13.5 µM.

`CCOC(=O)c1ccc(CS(=O)(=O)c2ccc(C)cc2)c([N+](=O)[O-])c1`: the EC50 is over 100 µM and the IC50 is over 100 µM.

For the molecule `N#CCC(=O)N/N=C(\CCN1CCCC1)CC(c1ccccc1)c1c(O)c2ccccc2oc1=O` (stereo not given), the EC50 is over 97.7 µM and the IC50 was 55 µM.

Consider `O=C(/C=C/c1ccsc1)c1ccc(Cl)s1`, for which the EC50 is over 200 µM.

`CC12CCCCC1=C(F)C(F)(F)S2` (stereo not given): the EC50 is over 200 µM and the IC50 is 115 µM.

On to `CC(=O)Nc1ccc(C(=O)N2N=C(C)/C(=C/c3ccc(O)cc3)C2=O)cc1`, for which the EC50 was over 37.2 µM and the 50% inhibitory concentration (IC50) was over 37.2 µM.

On to `CC(C)(C)c1cc(C2c3cc4c(cc3OC(O)(CO)C2C(=O)O)OCO4)cc(C(C)(C)C)c1O` (stereo not given) (tested in a mixture with another compound), for which the outcome was inactive.

Regarding `CCCCOC(=O)C(NC(C(=O)OCCCC)c1cc(C(C)(C)C)c(O)c(C(C)(C)C)c1)c1cc(C(C)(C)C)c(O)c(C(C)(C)C)c1` (stereo not given), the EC50 was over 200 µM and the IC50 is over 200 µM.

In the case of `CCOC(=O)/C(=C\c1cccc([N+](=O)[O-])c1)C(C)=O`, the result was inactive.

Regarding `Oc1ccc(Cl)cc1C1=NC(/N=C\c2ccccc2)=NC(c2ccccc2)C1` (stereo not given), the EC50 is over 200 µM and the IC50 is 8.91 µM.

As for `CCCC/S(C)=N/S(=O)(=O)c1ccc(C)cc1` (stereo not given), the EC50 was over 200 µM and the IC50 is over 200 µM.

Regarding `COC1[C@]2(O)C(=O)N3/C=C\C(C)(C)c4[nH]c5ccccc5c4/C=C\3C(=O)N2C23C(C)C(C)(C)N2c2ccccc2[C@]13O` (stereo not given in full), the outcome was inactive.

With `O=c1oc2ccc(O)cc2c2ccccc12`, the EC50 was over 170 µM and the IC50 was determined as 38 µM.

Regarding `O=P1(NC2CCCC2)OCC2(CO1)COP(=O)(NC1CCCC1)OC2` (stereo not given), the EC50 is over 200 µM and the half-maximal inhibitory concentration (IC50) was over 200 µM.

As for `O=C1C2CSCC1CN(Cc1ccccc1)C2`, the EC50 is over 525 µM and the IC50 is over 525 µM.

Turning to `COc1c(Cl)cc(C(=CCN[C@H]2CC[C@@]3(C)[C@@H](CC[C@@H]4[C@@H]3CC[C@]3(C)[C@@H]([C@H](C)CCCC(C)C)CC[C@@H]43)C2)c2cc(Cl)c(OC)c(C(=O)O)c2)cc1C(=O)O`, the EC50 was over 50.1 µM and the IC50 is over 50.1 µM.

Consider `O=C(O)Cc1cc(=O)[nH]n(-c2ccccc2)c1=O`, for which the EC50 was over 200 µM and the 50% inhibitory concentration (IC50) is over 200 µM.

`CC(C)(C)C1CC[C@H](O)[C@H]([C@H](O)CC2CC(=O)N(c3ccccc3)C(=O)C2)C1` (stereo not given in full): the EC50 is over 200 µM and the IC50 is over 200 µM.

`O=C1c2ccc([N+](=O)[O-])cc2C(=O)N1CC[P+](c1ccccc1)(c1ccccc1)c1ccccc1`: the EC50 is over 200 µM and the IC50 is over 200 µM.

In the case of `CC(C)CC(NC(=O)C(Cc1cnc[nH]1)NC(=O)C(Cc1ccccc1)NC(=O)C1CCCN1C(=O)OCc1ccccc1)C(=O)NC(CC(C)C)C(=O)NC(C(=O)NC(Cc1ccc(O)cc1)C(=O)NC(CO)C(=O)OCc1ccc([N+](=O)[O-])cc1)C(C)C` (stereo not given) (Cbz-PFHLLVYS-ONb; configuration not given here), the EC50 was over 11 µM and the IC50 is over 11 µM.

On to `O=C(C(=O)c1cc(-c2ccccc2)nc2ccc3ccccc3c12)c1ccccc1`, for which the EC50 is over 200 µM and the IC50 came to 174 µM.
